Results taken from US9873693B2 (Sunesis Pharmaceuticals, Inc., priority 2006, dated 2018).

What was measured:
dephosphorylated PDK1 = dephosphorylated PDK1 (Homo sapiens (Human), UniProt O15530); assay: PDK1 kinase assay (coupled PDK1/AKT/FAM-crosstide, IMAP); assay type: biochemical; details: 25 nM un-phosphorylated PDK1, 24 μM ATP; read-out: Inhibition of dephospo-PDK1 in vitro IC50
Outline: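 Coupled cascade using 25 nM dephosphorylated PDK1 (aa 51–360, lambda-phosphatase treated, MS-verified), 30 nM unphosphorylated GST-AKT2 (aa 140–467)-PIFtide and 100 nM FAM-crosstide in Tris pH 7.2, 10 mM MgCl2, 1 mM DTT. ATP was 24 μM, with 30 min at 25 °C. Product was read by IMAP fluorescence polarization, and ΔmP against concentration was fitted with a 4-parameter model.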

phospho-akt (Thr308) = phospho-akt (Thr308) MSD ELISA in PC-3 cells; assay type: cell-based; details: Homo sapiens, PC-3, 2 h, PC-3 cells, 2 hours, no serum; read-out: Inhibition of P308 Akt in cells using MSD EC50
Outline: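 PC-3 cells plated overnight in 10% FBS medium, then treated with three-fold serial compound dilutions in serum-free medium; DMSO-only wells as high control. Lysates captured on BSA-blocked MSD plates overnight at 4 degrees, detection antibody 1 hr RT, electrochemiluminescence read on MSD reader.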

Chain of dephosphorylated PDK1 (O15530 51-360): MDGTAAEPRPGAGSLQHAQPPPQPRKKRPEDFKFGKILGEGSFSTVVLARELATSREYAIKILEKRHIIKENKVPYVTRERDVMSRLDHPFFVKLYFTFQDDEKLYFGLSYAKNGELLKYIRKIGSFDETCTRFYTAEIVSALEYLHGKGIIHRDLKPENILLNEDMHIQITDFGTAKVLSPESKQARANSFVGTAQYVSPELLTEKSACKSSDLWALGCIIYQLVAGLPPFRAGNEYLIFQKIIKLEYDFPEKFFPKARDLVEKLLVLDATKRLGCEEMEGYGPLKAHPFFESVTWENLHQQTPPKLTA

In the case of `O=C(NCc1nc(-c2c[nH]c3ncccc23)cs1)c1cccn(Cc2ccc(F)c(F)c2)c1=O` [Cpd 112], the IC50 (dephosphorylated PDK1) is reported as less than 0.5 µM and the EC50 (phospho-akt (Thr308)) is reported as less than 1 µM.
